# Measured values: ChEMBL document CHEMBL1151094, “Benzenepropanoic acids containing chromanone or naphthalenone moieties are potent and orally active leukotriene B4 antagonists” (Bioorg Med Chem Lett, 1994)
# Target: T1, Leukotriene B4 receptor (Homo sapiens, UniProt Q9NPC1+Q15722)
# Test: Inhibition of LTB4 -induced bronchoconstriction in guinea pigs following 0.1 mg/kg prior to challenge.
# Type: functional, organism-based
# Parameters: dose 0.1 mg/kg; scale not given: the % may be the effect or the level left
# Conditions: Cavia porcellus; target entry is the homologue from another species; at 0.1 mg/kg
# T1 sequence (Q15722 whole entry, looked up): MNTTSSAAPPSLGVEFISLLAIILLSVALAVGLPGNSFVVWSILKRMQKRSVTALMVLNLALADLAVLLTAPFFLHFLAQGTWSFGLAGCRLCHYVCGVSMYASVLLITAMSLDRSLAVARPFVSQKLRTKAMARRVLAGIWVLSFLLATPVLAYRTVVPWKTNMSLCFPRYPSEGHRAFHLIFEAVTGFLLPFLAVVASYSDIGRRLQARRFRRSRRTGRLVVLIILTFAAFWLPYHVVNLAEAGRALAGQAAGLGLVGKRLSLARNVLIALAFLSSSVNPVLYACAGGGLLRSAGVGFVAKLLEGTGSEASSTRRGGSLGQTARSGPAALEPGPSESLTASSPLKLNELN
# T1 sequence (Q9NPC1 whole entry, looked up): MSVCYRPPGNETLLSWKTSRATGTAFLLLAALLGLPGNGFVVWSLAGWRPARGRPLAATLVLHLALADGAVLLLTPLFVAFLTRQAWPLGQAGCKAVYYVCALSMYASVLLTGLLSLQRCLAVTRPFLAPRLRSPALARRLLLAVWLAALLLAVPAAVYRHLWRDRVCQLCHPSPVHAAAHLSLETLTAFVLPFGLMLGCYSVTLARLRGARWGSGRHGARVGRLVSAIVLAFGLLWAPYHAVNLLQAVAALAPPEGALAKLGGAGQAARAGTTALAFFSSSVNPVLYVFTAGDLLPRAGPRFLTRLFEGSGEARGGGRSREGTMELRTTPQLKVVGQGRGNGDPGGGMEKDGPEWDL
row,Control,Structure (SMILES)
1,88%,COc1ccc(/C=C/CCCCOc2ccc(C(=O)c3cccc(C(=O)O)c3)cc2CCC(=O)O)cc1
2,80%,COc1cc(C(=O)N(C(C)C)C(C)C)ccc1OCCCCCOc1ccc(C(=N)N)cc1.O=C(O)/C=C\C(=O)O [MOXILUBANT MALEATE]
3,101%,COc1ccc(/C=C/CCCCOc2cccc(OCCCCC(=O)O)c2CCC(=O)O)cc1
4,91%,CCCc1c(OCCCOc2ccc(C(C)=O)c(OC)c2CCC)ccc2c1OC(C(=O)O)CC2 (racemic)

# System: Cavia porcellus
# Test: Percent of control LTB4 -induced bronchoconstriction in guinea pigs before 20 hours pretreatment at 1.0 mg/kg
# Type: functional
# Conditions: not given
row,Structure (SMILES),Control
1,CCCc1c(OCCCCCCc2cccc(OCCCCC(=O)O)c2CCC(=O)O)ccc2c1OCCC2=O,26%
2,CCCc1c(OCCCCCCc2cccc(OCCCC(=O)O)c2CCC(=O)O)ccc2c1OCCC2=O,20%
3,CCCc1c(OCCCCCCc2cccc(OCCCC(=O)O)c2CCC(=O)O)ccc2c1CCCC2=O,19%
4,CCCc1c(OCCCCCCc2cccc(OCCCCCCCC(=O)O)c2CCC(=O)O)ccc2c1OCCC2=O,27%
5,CC(C)(CCCCOc1cc(-c2ccccc2)cc(-c2ccccc2)n1)c1nnn[nH]1,15%
6,CCCc1c(OCCCCCCc2cccc(OCCCCCCC(=O)O)c2CCC(=O)O)ccc2c1OCCC2=O,73%
7,CCCc1c(OCCCCCCc2ccc(OCCCC(=O)O)cc2CCC(=O)O)ccc2c1OCCC2=O,45%
8,CCCc1c(OCCCCCCc2cccc(OCCCCCCCCC(=O)O)c2CCC(=O)O)ccc2c1OCCC2=O,24%
9,CCCc1c(OCCCCCCc2cccc(OCCCCCC(=O)O)c2CCC(=O)O)ccc2c1CCCC2=O,25%
10,CCCc1c(OCCCOc2ccc(-c3cscn3)c(OC)c2CC2CC2)ccc2c1OC(C(=O)O)CC2 (configuration not stated),36%

# Target: T1, Leukotriene B4 receptor
# Test: Inhibition of leukotriene B4 (LTB4) binding to its receptor on intact human neutrophils
# Conditions: not given
row,Ki,Structure (SMILES)
1,320 nM,CCCc1c(OCCCCCOc2cc3c(cc2C(C)=O)CCC(C(=O)O)O3)ccc(C(C)=O)c1O (racemic) [ABLUKAST]
2,11 nM,COc1ccc(/C=C/CCCCOc2ccc(C(=O)c3cccc(C(=O)O)c3)cc2CCC(=O)O)cc1
3,1 nM,COc1cc(C(=O)N(C(C)C)C(C)C)ccc1OCCCCCOc1ccc(C(=N)N)cc1.O=C(O)/C=C\C(=O)O [MOXILUBANT MALEATE]
